We go through three compounds from patent US20090253712A1, “AQUEOUS SOLVENT SYSTEM FOR SOLUBILIZATION OF AZOLE COMPOUNDS” (SEMMELWEIS EGYETEM, priority 2008, published 2009).

Data set [1] in a line: Solubility tests of active agent in solvent systems. As to conditions: for solubility: thermodynamic from solid; for Solubility in the compositions of Table 5 (in words): 3% surfactant, 25% co-solvent and pH adjuster (pH 3.1); for Solubilized miconazole / ketoconazole / itraconazole ± S.D.: Table 5: 1.5% sodium taurocholeate + 1.5% polysorbate 80 + 15% ethanol + 10% propylene glycol + ammonium acetate pH 3.1. Type of data set: physicochemical. The procedure: General example for the solubility tests
Each of the solutions applied in the solubilization tests were prepared as follows (the specific amount of the components comes from the Tables below):
1. 0.05M ammonium acetate (as pH-adjuster) solution was prepared in a volumetric flask and the pH of this solution was set to pH 3.1 with glacial acetic acid.
2. The specific amount of co-solvent was measured into a beaker and the specific amount of the previously prepared 0.05M ammonium acetate solution was added. The pH of this solution was measured and set to pH 3.1 with glacial acetic acid.
3. The specific amount of surfactant was added to the solution.
4. This solvent system was vigorously shaken until complete homogenization of the solution was achieved.
5. Aliquot amount of this solvent system was measured and the specific amount of the active agent was added to the solution.
The Tables below define the composition of each solution tested and the amount of the active agent which could be solubilized by the applied solvent system.
The amount of the co-solvent is given in % by volume and the amount of the surfactant is given in % by weight in each table.

The conditions of data set [2]: data from U.S. Pat. No. 6,383,471, cited from earlier work.
A short description of data set [3]: Stability on dilution with infusions. Type of data set: physicochemical. As to conditions: for Concentration of polysorbate 80 necessary to keep miconazole in solution on dilution: co-solvent 20% ethanol + ammonium acetate, pH 3.1, dilution to 200 ml with 5% dextrose or 0.9% sodium chloride infusions. The procedure:
A composition called as “concentrate for infusion” should be diluted before administration to patients by a previously determined amount of usual infusion. The usual infusion is chosen preferably from the group of 5% dextrose infusion and 0.9% sodium chloride infusion. It is well known for a skilled person in the art that such a dilute should be stable for at least 48 hours. To reproduce the dilution scheme applied in the case of Monistat® (previously marketed as a concentrate for infusion containing miconazole), one of the compositions of the present invention was diluted with 5% dextrose infusion and 0.9% sodium chloride infusion. Based on the previous results a composition comprising of 0.1% polysorbate 80, 20% ethanol and ammonium acetate pH 3.1 was chosen for further investigation. […]

Where [4] appears, read: 3% polysorbate 80 + 25% ethanol + ammonium acetate pH 3.1, pH 3.1, aqueous with cosolvent or surfactant or cyclodextrin, Table 5: 3% polysorbate 80 + 25% ethanol + ammonium acetate pH 3.1, read-out: Solubilized miconazole / ketoconazole / itraconazole ± S.D.
[5] abbreviates: aqueous with cosolvent or surfactant or cyclodextrin, Table 5: 1.5% sodium taurocholeate + 1.5% polysorbate 80 + 15% ethanol + 10% PEG 400 + ammonium acetate pH 3.1, read-out: Solubilized miconazole / ketoconazole / itraconazole ± S.D.
[6] abbreviates: pH 3.1, aqueous with cosolvent or surfactant or cyclodextrin, Table 5: 1.5% sodium taurocholeate + 1.5% polysorbate 80 + 25% ethanol + ammonium acetate pH 3.1, read-out: Solubilized miconazole / ketoconazole / itraconazole ± S.D.
The mark [7] stands for this setting: pH 3.1, aqueous with cosolvent or surfactant or cyclodextrin, Table 5: 3% polysorbate 80 + 15% ethanol + 10% PEG 400 + ammonium acetate pH 3.1, read-out: Solubilized miconazole / ketoconazole / itraconazole ± S.D.
[8] abbreviates: pH 3.1, aqueous with cosolvent or surfactant or cyclodextrin, Table 5: 3% polysorbate 80 + 15% ethanol + 10% propylene glycol + ammonium acetate pH 3.1, read-out: Solubilized miconazole / ketoconazole / itraconazole ± S.D.

In brackets after ≈: the same amount, converted by molar mass. Read-outs that look alike come from different tables or passages of the source.

Consider `CCC(C)n1ncn(-c2ccc(N3CCN(c4ccc(OCC5COC(Cn6cncn6)(c6ccc(Cl)cc6Cl)O5)cc4)CC3)cc2)c1=O` (centres unmarked) [itraconazole], for which the solubility in data set [1] (setting [4]) came to 0.057 ± 0.005 mg/mL; in data set [1] (setting [5]) it was 0.04 ± 0.001 mg/mL; in data set [1] (setting [6]) it was 0.04 ± 0.008 mg/mL; in data set [1] (setting [7]) it was 0.054 ± 0.002 mg/mL; in data set [1] (setting [8]), 0.04 ± 0.001 mg/mL. For the same compound, the “Solubility in the compositions of Table 5 (in words)” value (“Solubility in the compositions” for short) in data set [1] is listed as “no substantial solubility”. Further, in data set [1], the “Solubilized miconazole / ketoconazole / itraconazole ± S.D.” value was 0.026 ± 0.001 mg/mL. Also, the Solubilized itraconazole was 85 mg/mL in data set [2] (solvent system of Example 27); 50 mg/mL in data set [2] (solvent system of Example 28); 50 mg/mL in data set [2] (solvent system of Example 29); 30 mg/mL in data set [2] (solvent system of Example 30); 30 mg/mL in data set [2] (solvent system of Example 31).
For `Clc1ccc(COC(Cn2ccnc2)c2ccc(Cl)cc2Cl)c(Cl)c1` (centres unmarked) [miconazole], the solubility was determined as 2.24 ± 0.36 mg/mL (≈ 5380 µM) in data set [1] (0.05 M ammonium acetate in water, pH 3.1, aqueous buffer, 0.05 M ammonium acetate pH 3.1 in water, read-out: Solubilized miconazole ± S.D.); 0.65 ± 0.06 mg/mL (≈ 1560 µM) in data set [1] (0.05 M calcium gluconate in water, pH 3.1, aqueous buffer, 0.05 M calcium gluconate pH 3.1 in water, read-out: Solubilized miconazole ± S.D.); 0.77 ± 0.05 mg/mL (≈ 1850 µM) in data set [1] (0.05 M potassium dihydrogen phosphate in water, pH 3.1, aqueous buffer, 0.05 M potassium dihydrogen phosphate pH 3.1 in water, read-out: Solubilized miconazole ± S.D.); 2.39 ± 0.12 mg/mL in data set [1] (0.10% polysorbate 80 + 5% ethanol + ammonium acetate pH 3.1, pH 3.1, aqueous with cosolvent or surfactant or cyclodextrin, Table 3: 0.10% polysorbate 80 + 5% ethanol + ammonium acetate pH 3.1, read-out: Solubilized miconazole ± S.D.); 4.52 ± 0.03 mg/mL in data set [1] (0.1% polysorbate 80 + 10% ethanol + ammonium acetate pH 3.1, pH 3.1, aqueous with cosolvent or surfactant or cyclodextrin, Table 3: 0.1% polysorbate 80 + 10% ethanol + ammonium acetate pH 3.1, read-out: Solubilized miconazole ± S.D.); 10.8 ± 2.84 mg/mL in data set [1] (0.1% polysorbate 80 + 15% ethanol + ammonium acetate pH 3.1, pH 3.1, aqueous with cosolvent or surfactant or cyclodextrin, Table 3: 0.1% polysorbate 80 + 15% ethanol + ammonium acetate pH 3.1, read-out: Solubilized miconazole ± S.D.). In addition, the solubility is 35.1 ± 5.76 mg/mL in data set [1] (0.1% polysorbate 80 + 20% ethanol + ammonium acetate pH 3.1, pH 3.1, aqueous with cosolvent or surfactant or cyclodextrin, Table 3: 0.1% polysorbate 80 + 20% ethanol + ammonium acetate pH 3.1, read-out: Solubilized miconazole ± S.D.); 36 ± 2.09 mg/mL in data set [1] (0.10% polysorbate 80 + 25% ethanol + ammonium acetate pH 3.1, pH 3.1, aqueous with cosolvent or surfactant or cyclodextrin, Table 2: 0.10% polysorbate 80 + 25% ethanol + ammonium acetate pH 3.1, read-out: Solubilized miconazole ± S.D.); 36 ± 1.49 mg/mL in data set [1] (0.1% polysorbate 80 + 25% ethanol + ammonium acetate pH 3.1, pH 3.1, aqueous with cosolvent or surfactant or cyclodextrin, Table 3: 0.1% polysorbate 80 + 25% ethanol + ammonium acetate pH 3.1, read-out: Solubilized miconazole ± S.D.); 34.4 ± 1.51 mg/mL in data set [1] (0.25% polysorbate 80 + 25% ethanol + ammonium acetate pH 3.1, pH 3.1, aqueous with cosolvent or surfactant or cyclodextrin, Table 2: 0.25% polysorbate 80 + 25% ethanol + ammonium acetate pH 3.1, read-out: Solubilized miconazole ± S.D.); 44.72 ± 0.14 mg/mL in data set [1] (0.50% polysorbate 80 + 25% ethanol + ammonium acetate pH 3.1, pH 3.1, aqueous with cosolvent or surfactant or cyclodextrin, Table 2: 0.50% polysorbate 80 + 25% ethanol + ammonium acetate pH 3.1, read-out: Solubilized miconazole ± S.D.); 42.6 ± 2.04 mg/mL in data set [1] (1.0% polysorbate 80 + 25% ethanol + ammonium acetate pH 3.1, pH 3.1, aqueous with cosolvent or surfactant or cyclodextrin, Table 2: 1.0% polysorbate 80 + 25% ethanol + ammonium acetate pH 3.1, read-out: Solubilized miconazole ± S.D.). Moreover, the solubility in data set [1] (2.0% polysorbate 80 + 25% ethanol + ammonium acetate pH 3.1, pH 3.1, aqueous with cosolvent or surfactant or cyclodextrin, Table 2: 2.0% polysorbate 80 + 25% ethanol + ammonium acetate pH 3.1, read-out: Solubilized miconazole ± S.D.) amounted to 37.9 ± 1.86 mg/mL; in data set [1] (3% polysorbate 20 in water, aqueous with cosolvent or surfactant or cyclodextrin, 3% polysorbate 20 in water, read-out: Solubilized miconazole ± S.D.), 0.81 ± 0.07 mg/mL (≈ 1950 µM); in data set [1] (3% polysorbate 60 in water, aqueous with cosolvent or surfactant or cyclodextrin, 3% polysorbate 60 in water, read-out: Solubilized miconazole ± S.D.), 1.42 ± 0.1 mg/mL (≈ 3410 µM); in data set [1] (3.0% polysorbate 80 + 25% ethanol + ammonium acetate pH 3.1, pH 3.1, aqueous with cosolvent or surfactant or cyclodextrin, Table 2: 3.0% polysorbate 80 + 25% ethanol + ammonium acetate pH 3.1, read-out: Solubilized miconazole ± S.D.), 38.9 ± 0.61 mg/mL; in data set [1] (setting [4]), 34.1 ± 2.95 mg/mL; in data set [1] (3% polysorbate 80 in water, aqueous with cosolvent or surfactant or cyclodextrin, 3% polysorbate 80 in water, read-out: Solubilized miconazole ± S.D.), 1.52 ± 0.09 mg/mL (≈ 3650 µM). Besides, the solubility in data set [1] (4.0% polysorbate 80 + 25% ethanol + ammonium acetate pH 3.1, pH 3.1, aqueous with cosolvent or surfactant or cyclodextrin, Table 2: 4.0% polysorbate 80 + 25% ethanol + ammonium acetate pH 3.1, read-out: Solubilized miconazole ± S.D.) came to 43.3 ± 2.61 mg/mL; in data set [1] (5.0% polysorbate 80 + 25% ethanol + ammonium acetate pH 3.1, pH 3.1, aqueous with cosolvent or surfactant or cyclodextrin, Table 2: 5.0% polysorbate 80 + 25% ethanol + ammonium acetate pH 3.1, read-out: Solubilized miconazole ± S.D.) it was 42.7 ± 0.81 mg/mL; in data set [1] (25% ethanol in water, aqueous with cosolvent or surfactant or cyclodextrin, 25% ethanol in water, read-out: Solubilized miconazole ± S.D.), 0.021 ± 0.01 mg/mL (≈ 50.5 µM); in data set [1] (30% glycerol in water, aqueous with cosolvent or surfactant or cyclodextrin, 30% glycerol in water, read-out: Solubilized miconazole ± S.D.), 0.024 ± 0.006 mg/mL (≈ 57.7 µM); in data set [1] (30% macrogol 400 in water, aqueous with cosolvent or surfactant or cyclodextrin, 30% macrogol 400 in water, read-out: Solubilized miconazole ± S.D.) it was 0.022 ± 0.008 mg/mL (≈ 52.9 µM); in data set [1] (60% propylene glycol in water, aqueous with cosolvent or surfactant or cyclodextrin, 60% propylene glycol in water, read-out: Solubilized miconazole ± S.D.), 0.36 ± 0.12 mg/mL (≈ 865 µM). For the same compound, the solubility in data set [1] (setting [5]) came out at 34.8 ± 2.36 mg/mL; in data set [1] (setting [6]), 32.1 ± 2.86 mg/mL; in data set [1] (setting [7]), 22 ± 1.62 mg/mL; in data set [1] (setting [8]), 10.7 ± 0.69 mg/mL. In data set [1], the “Solubility in the compositions” value was “remarkable solubility”. The “Solubilized miconazole / ketoconazole / itraconazole ± S.D.” value in data set [1] worked out at 38.38 ± 1.53 mg/mL. For the same compound, the entries for the “Concentration of polysorbate 80 necessary to keep miconazole in solution on dilution” value in data set [3] (10 mg/ml miconazole in composition), in data set [3] (20 mg/ml miconazole in composition) and in data set [3] (30 mg/ml miconazole in composition) were 0.1%^, 3% and 3%, respectively. Further, the “Stability of diluted composition” value in data set [3] (10 ml of 0.1% polysorbate 80, 20% ethanol, ammonium acetate pH 3.1 containing 20 mg/ml miconazole, diluted to 200 ml with 5% dextrose or 0.9% sodium chloride infusion) is recorded as “not stable for 48 hours”.
On to `CC(=O)N1CCN(c2ccc(OCC3COC(Cn4ccnc4)(c4ccc(Cl)cc4Cl)O3)cc2)CC1` (centres unmarked) [ketoconazole], for which the solubility in data set [1] (setting [4]) came out at 139 ± 4.05 mg/mL; in data set [1] (setting [5]), 142 ± 2.85 mg/mL; in data set [1] (setting [6]), 137 ± 8.15 mg/mL; in data set [1] (setting [7]) it was 140 ± 3.99 mg/mL; in data set [1] (setting [8]) it was 124.7 ± 1.16 mg/mL. Moreover, the “Solubility in the compositions” value in data set [1] was “best solubility”. In data set [1], the “Solubilized miconazole / ketoconazole / itraconazole ± S.D.” value amounted to 126.54 ± 1.04 mg/mL.
